The text below walks through data of US20120004122A1, “Diagnostic Marker for Migraine and Use Thereof” (priority 2005, published 2012).

This test has as its system α-fodrin gene. The test can be described thus: α-fodrin gene expression in lymphocyte-derived immortalized cells before and after drug administration (real-time PCR). In kind it is cell-based, human. The following applies: EB virus-immortalized cells derived from lymphocytes of the migraine group and the healthy group; before vs after administration of the drug to cells in culture; FIG. 2.

From the text: Peripheral bloods were harvested from 5 patients having an aura of migraine, as diagnosed according to the International Classification of Headache Disorders 2nd Edition (ICHD-II) of the International Headache Society as well as from 5 healthy subjects constituting a control group who are matched with the 5 patients in terms of age and sex. From the migraine subjects, their bloods were drawn during an interval between migraine attacks. Their lymphocytes were isolated by centrifugation from the peripheral bloods collected from each group.
The lymphocytes of each group were infected by adding 1 mL of EB virus supernatant (the culture supernatant of B958 cells, EB virus-producing cells) to the lymphocytes at 2×10^6 cells and 2 μL of 100-fold diluted cyclosporin solution (original solution of cyclosporin (Sandimmun 1A (5 ml) 250 mg) to the lymphocytes at 2×10^6 cells, followed by incubation in RPMI(+) medium for about four days. Then, cell lines established by continuous passaging in the same medium were used as the lymphocyte-derived immortalized cells in the present invention. These immortalized cells were used for the following experiments under the same conditions of culture condition, number of passages, etc.
Thus, the gene expression levels of α-fodrin and HPCAL1 were examined by performing quantitative real-time PCR using immortalized lymphocytes obtained from the migraine and healthy subjects as samples. […] The expression level of each gene was relatively quantified by the comparative Ct (threshold cycle) method based on the amplification curve obtained from the PCR.
Immortalized cells derived from lymphocytes of the migraine group and the healthy group were subjected to mRNA expression analysis in the same manner as described above. […] By using part of the immortalized cells before and after the administration of each drug, the expression level of α-fodrin gene was analyzed.

As for `NC(N)=Nc1nc(CSCCC(N)=NS(N)(=O)=O)cs1` [Gaster, famotidine], the “expression level of α-fodrin gene” value is “increased the expression level of α-fodrin”.
In the case of `CC(=O)Oc1ccccc1C(=O)O` [aspirin] it was “reduced the expression level of α-fodrin”.
For `CNS(=O)(=O)Cc1ccc2[nH]cc(CCN(C)C)c2c1` [sumatriptan] the value was “reduced the expression level of α-fodrin”.
